Results published in patent US9121806B1, “Impedance spectroscopy-based cellular analysis device” (University of South Florida, priority 2007, dated 2015).

Test system: OvCa429 cells
Test: Effect of trypsin on confluent OvCa429 cell culture monitored by impedance phase angle mapping
Format: cell-based
Conditions: 20 μl of trypsin added to culture medium after 5 h of monitoring, approximately 80% confluence, monitored over 18 h
Protocol: Ovarian cancer line OvCa429 were grown in M199 and MCDB 105 (1:1) (Sigma, St Louis, Mo.) supplemented with 10% fetal calf serum (Sigma), 2 mM L-glutamine, 100 units ml-1 penicillin and 100 μgml-1 streptomycin under 5% CO2, and 37 .C high-humidity atmosphere. The cell culture medium was changed every 2-3 days, depending on the rate of cell growth. Cells were sub-cultured using 1× trypsin solution directly on the multielectrode device Impedance data were taken at room temperature of about 22° C. After each recording the cells were placed back in to the incubator. The cell culture medium was not changed throughout the course of the experiment. Impedance measurements were recorded on two separate devices (control and variable) beginning at approximately 80% confluence of the OvCa culture. After 5 h of recording measurements at an interval of approximately 1 h, 20 μl of trypsin was added to the cell culture medium of variable. Trypsin was not added to the control. The impedance was recorded under room conditions and the devices were placed back in the incubator after each measurement frame.
In order to affirm the utility of impedance mapping for tracking physiological changes, the effect of trypsin on the confluent cell culture was analyzed. […] FIG. 6 is the phase angle mapping of control and trypsinized cultures monitored over a period of 18 h.

Substance: trypsin
- effect of trypsin on the confluent cell culture (phase angle shape / cell detachment): detached the cells from the substrate
